Test results published in ChEMBL document CHEMBL4390642, “The in vivo antinociceptive and μ-opioid receptor activating effects of the combination of N-phenyl-2',4'-dimethyl-4,5'-bi-1,3-thiazol-2-amines and naloxone” (Eur J Med Chem, 2019).
Activity calls are given as the source filed them. The rule behind the calls is not given here.

Key:
Mu-type opioid receptor [1] = target: T1, Mu-type opioid receptor (Homo sapiens, UniProt P35372); experiment: Agonist activity at human mu opioid receptor expressed in CHOK1 cells coexpressing Galpha15 assessed as increase in intracellular calcium flux in presence of mu opioid receptor antagonist naloxone and incubated for 1 hr measured for 90 secs at 1.5 sec interval by FLIPR assay; type: functional, cell-based
T1 sequence (P35372 whole entry): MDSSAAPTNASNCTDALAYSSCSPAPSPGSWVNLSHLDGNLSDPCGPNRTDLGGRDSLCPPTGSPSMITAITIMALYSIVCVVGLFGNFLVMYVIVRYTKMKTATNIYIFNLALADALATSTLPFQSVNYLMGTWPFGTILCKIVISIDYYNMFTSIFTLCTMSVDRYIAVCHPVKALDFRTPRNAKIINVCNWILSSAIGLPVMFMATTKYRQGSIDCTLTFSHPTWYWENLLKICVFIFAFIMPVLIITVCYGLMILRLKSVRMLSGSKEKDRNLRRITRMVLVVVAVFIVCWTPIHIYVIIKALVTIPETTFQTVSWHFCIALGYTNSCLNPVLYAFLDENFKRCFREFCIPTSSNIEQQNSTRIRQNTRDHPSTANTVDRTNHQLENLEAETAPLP

Mu-type opioid receptor [2] = target: T1, Mu-type opioid receptor; experiment: Agonist activity at human mu opioid receptor expressed in CHOK1 cells coexpressing Galpha15 assessed as intracellular calcium AUC in presence of mu opioid receptor antagonist naloxone and incubated for 1 hr measured for 90 secs at 1.5 sec interval by FLIPR assay to morphine; type: functional, cell-based; design: concentration or dose not given beside the values
Mus musculus [3] = experiment: Antinociceptive activity in C57BL/6 mouse model of thermal-induced nociception at 100 mg/kg, sc measured up to 30 to 180 mins by tail flick test; type: functional, organism-based
[4] = Toxicity in iv dosed C57BL/6 mouse assessed as safe dose causing no animal death measured up to 30 to 180 mins during tail-flick test; type: organism-based; conditions: in vivo
Mus musculus [5] = experiment: Antinociceptive activity in C57BL/6 mouse model of thermal-induced nociception at 100 mg/kg measured at 30 mins post injection by tail flick test; type: functional, organism-based
Mus musculus [6] = experiment: Antinociceptive activity in C57BL/6 mouse model of thermal-induced nociception assessed as inhibition of tail-flick response by measuring AUC of tail flick test at 50 mg/kg, iv measured up to 30 to 180 mins in presence of 10 mg/kg, sc opioid receptor antagonist naloxone by tail flick test; type: functional, organism-based
Mus musculus [7] = experiment: Antinociceptive activity in C57BL/6 mouse model of thermal-induced nociception assessed as inhibition of tail-flick response at 100 mg/kg, iv measured at 30 mins in presence of opioid receptor antagonist naloxone at 100 ng/kg, sc by tail flick test; type: functional, organism-based
Mus musculus [8] = experiment: (§1) Antinociceptive activity in C57BL/6 mouse model of thermal-induced nociception assessed as inhibition of tail-flick response by measuring AUC of tail flick test at 25 to 100 mg/kg, iv measured up to 30 to 180 mins in presence of 10 mg/kg, sc opioid receptor antagonist naloxone by tail flick test; type: functional, organism-based
Mus musculus [9] = experiment: Antinociceptive activity in C57BL/6 mouse model of thermal-induced nociception assessed as inhibition of tail-flick response at 100 mg/kg, iv measured up to 30 to 180 mins in presence of opioid receptor antagonist naloxone at 100 ng/kg, sc by tail flick test; type: functional, organism-based
Mus musculus [10] = experiment: as §1, with “assessed as naloxone ED50 for inhibition of” for “assessed as inhibition of”, “test at 100 mg/kg,” for “test at 25 to 100 mg/kg,”; type: functional
[11] = Toxicity in C57BL/6 mouse at 100 mg/kg, iv measured up to 30 to 180 mins during tail-flick test; type: organism-based; conditions: in vivo
Mus musculus [12] = experiment: Antinociceptive activity in C57BL/6 mouse model of thermal-induced nociception assessed as inhibition of tail-flick response by measuring AUC of tail flick test at 25 mg/kg, iv measured up to 30 to 180 mins in presence of 10 mg/kg, sc opioid receptor antagonist naloxone by tail flick test; type: functional, organism-based
Mus musculus [13] = experiment: Antinociceptive activity in C57BL/6 mouse model of thermal-induced nociception assessed as inhibition of tail-flick response by measuring AUC of tail flick test at 100 mg/kg, iv measured up to 30 to 180 mins in presence of 10 mg/kg, sc opioid receptor antagonist naloxone by tail flick test; type: functional, organism-based

CCc1nc(C)c(-c2csc(Nc3ccccc3CC)n2)s1
EC50 (Mu-type opioid receptor [1]): 8.6 µM | Activity (Mu-type opioid receptor [2]): 32.5%

Cc1cc(C)c(Nc2nc(-c3oc(C)nc3C)cs2)c(C)c1
EC50 (Mu-type opioid receptor [1]): 3.9 µM | Activity (Mu-type opioid receptor [2]): 43.2%

CCc1ccccc1Nc1nc(C)cs1
EC50 (Mu-type opioid receptor [1]): > 30 µM | Activity (Mu-type opioid receptor [2]): inactive

Cc1nc(C)c(-c2csc(Nc3c(C)cccc3F)n2)s1
EC50 (Mu-type opioid receptor [1]): 4.2 µM | Activity (Mu-type opioid receptor [2]): 32%

CCc1ccccc1Nc1nc(-c2sc(C)nc2C)c(C)s1
EC50 (Mu-type opioid receptor [1]): > 30 µM | Activity (Mu-type opioid receptor [2]): inactive

CCc1ccccc1Nc1nc(-c2sc(N)nc2C)cs1
EC50 (Mu-type opioid receptor [1]): > 30 µM | Activity (Mu-type opioid receptor [2]): inactive

COc1cccc(Nc2nc(-c3sc(C)nc3C)cs2)c1C
EC50 (Mu-type opioid receptor [1]): 3.3 µM | Activity (Mu-type opioid receptor [2]): 27.2%

Cc1nc(C)c(-c2csc(N)n2)s1
EC50 (Mu-type opioid receptor [1]): > 30 µM | Activity (Mu-type opioid receptor [2]): inactive

C=CCN1CC[C@]23c4c5ccc(O)c4O[C@H]2C(=O)CC[C@@]3(O)[C@H]1C5
Activity (Mus musculus [3]): inactive

CCc1ccccc1Nc1nc(-c2oc(C)nc2C)cs1
EC50 (Mu-type opioid receptor [1]): 3.3 µM | Activity (Mu-type opioid receptor [2]): 76.2%

CCc1cccc(C)c1Nc1nc(-c2sc(C)nc2C)cs1
EC50 (Mu-type opioid receptor [1]): 2.8 µM | Activity (Mu-type opioid receptor [2]): 38.2%

COc1ccc(Nc2nc(-c3sc(C)nc3C)cs2)c(C)c1
EC50 (Mu-type opioid receptor [1]): 14 µM | Activity (Mu-type opioid receptor [2]): 32.6%

CCc1ccccc1Nc1ncc(-c2sc(C)nc2C)o1
EC50 (Mu-type opioid receptor [1]): 13.3 µM | Activity (Mu-type opioid receptor [2]): 34.4%

Cc1cc(C)c(Nc2nc(-c3sc(C)nc3C)cs2)c(C)c1
EC50 (Mu-type opioid receptor [1]): 6.1 µM | Activity (Mu-type opioid receptor [2]): 52%

COc1ccc(Nc2nc(-c3sc(C)nc3C)cs2)c(OC)c1
EC50 (Mu-type opioid receptor [1]): 19 µM | Activity (Mu-type opioid receptor [2]): 45.2%

CCc1cc(Br)ccc1Nc1nc(-c2sc(C)nc2C)cs1
EC50 (Mu-type opioid receptor [1]): 4.9 µM | Activity (Mu-type opioid receptor [2]): 5.9%

Cc1nc(C)c(-c2csc(Nc3c(C(C)C)cccc3C(C)C)n2)s1
EC50 (Mu-type opioid receptor [1]): > 30 µM | Activity (Mu-type opioid receptor [2]): inactive

CCc1ccccc1Nc1nc(-c2sc(-c3ccccc3)nc2C)cs1
EC50 (Mu-type opioid receptor [1]): > 30 µM | Activity (Mu-type opioid receptor [2]): inactive

Cc1nc(C)c(-c2csc(Nc3ccccc3CC(F)(F)F)n2)s1
EC50 (Mu-type opioid receptor [1]): 8.5 µM | Activity (Mu-type opioid receptor [2]): 72.1%

Cc1nc(C)c(-c2csc(Nc3cccc(F)c3C)n2)s1
EC50 (Mu-type opioid receptor [1]): 10.1 µM | Activity (Mu-type opioid receptor [2]): 57.9%

Cc1nc(C)c(-c2csc(Nc3ccc(Br)cc3C)n2)s1
EC50 (Mu-type opioid receptor [1]): > 30 µM | Activity (Mu-type opioid receptor [2]): inactive

Cc1nc(C)c(-c2csc(Nc3ccc(Br)cc3C(F)(F)F)n2)s1
EC50 (Mu-type opioid receptor [1]): 13.8 µM | Activity (Mu-type opioid receptor [2]): 32.9%

CCc1ccccc1Nc1nc(-c2sc(NC(C)=O)nc2C)cs1
EC50 (Mu-type opioid receptor [1]): > 30 µM | Activity (Mu-type opioid receptor [2]): inactive

CCc1ccccc1Nc1nc(-c2nccs2)cs1
EC50 (Mu-type opioid receptor [1]): > 30 µM | Activity (Mu-type opioid receptor [2]): inactive

Cc1ccc(Nc2nc(-c3sc(C)nc3C)cs2)c(C)c1
EC50 (Mu-type opioid receptor [1]): 8.8 µM | Activity (Mu-type opioid receptor [2]): 57.2%

CCc1ccccc1Nc1nc(-c2sc(C)nc2C)cs1
Activity [4]: 100 mg/kg | Activity (Mus musculus [5]): inactive | AUC (Mus musculus [6]): 160 min.sec | Activity (Mus musculus [7]): inactive | Activity (Mus musculus [8]): Dose-dependent effect | Activity (Mus musculus [9]): Active | ED50 (Mus musculus [10]): 17.5 mg/kg | Activity [11]: Non-Toxic | AUC (Mus musculus [12]): 115 min.sec | AUC (Mus musculus [13]): 384 min.sec
